± gives the uncertainty stated by the source.
What was measured:
Conditions in all cases: 18 h
HEK293T-Rex XBP1-RLuc [1] = experiment: maximal XBP1-RLuc activation from dose-response fit, relative to thapsigargin (% of thapsigargin); higher = stronger activation
Procedure: (§1)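 Dose-response of hit compounds in HEK293T-Rex cells stably expressing ERSE-FLuc or XBP1-RLuc reporters, 18 hr treatment, 1536-well; luminescence normalised to 500 nM thapsigargin (100%) and DMSO (0%), fitted to give EC50 (M) and maximal activation; '>' marks EC50 above the top tested dose (~17 µM).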

HEK293T-Rex ERSE-FLuc [2] = experiment: EC50 for ERSE-FLuc reporter activation
Procedure: as §1

HEK293T-Rex XBP1-RLuc [3] = experiment: EC50 for XBP1-RLuc reporter activation
Procedure: as §1

HEK293T-Rex ERSE-FLuc [4] = experiment: maximal ERSE-FLuc activation from dose-response fit, relative to thapsigargin (% of thapsigargin); higher = stronger activation
Procedure: as §1

Row | Compound | maximal XBP1-RLuc activation (HEK293T-Rex XBP1-RLuc [1]) | EC50 for ERSE-FLuc reporter activation (HEK293T-Rex ERSE-FLuc [2]) [µM] | EC50 for XBP1-RLuc reporter activation (HEK293T-Rex XBP1-RLuc [3]) [µM] | maximal ERSE-FLuc activation (HEK293T-Rex ERSE-FLuc [4])
1 | N#C/C(=C(/O)c1cc(-c2ccccc2)nc2ccccc12)c1nc2ccccc2[nH]1 | 17.9 ± 1.4 | > 15.9 | > 15.9 | 24.8 ± 8.7
2 | COc1cccc(C(=O)Nc2nc3ccc(C)cc3s2)c1 | 10.2 ± 2.3 | > 20.6 | > 20.6 | 31.7 ± 6.6
3 | N#C/C(=C\c1ccc(O)c(O)c1)c1nc2ccccc2[nH]1 | 25.6 ± 1.6 | > 16.9 | > 16.9 | 37.6 ± 12
4 | COc1cccc(C(=O)/C=C/Nc2cc(C)ccc2O)c1 | 72.5 ± 3.2 | 4 | 6.99 | 229 ± 0.77
5 | O=C(COC(=O)c1ccc(O)c(O)c1)Nc1nc(-c2ccccc2)cs1 | 53.4 ± 3.6 | > 18.2 | 16.8 | 36.1 ± 4.4
6 | Nc1nc(Nc2ccccc2)cc(-c2ccccc2)n1 | 3.36 ± 1.2 | > 17.2 | > 17.2 | 25.8 ± 9.6
7 | Cc1ccc(O)c(-c2cc(-c3cccs3)[nH]n2)c1 | 27.5 ± 2.1 | 8.75 | > 18.9 | 131 ± 8.8
8 | COc1ccc2[nH]c3c(N4CCCCC4)ncnc3c2c1 | 9.73 ± 1.4 | > 17.1 | > 17.1 | 27.4 ± 2.9
9 | CCc1ccc(NC(=O)/C=C/c2ccco2)cc1 | 4.4 ± 8.8 | > 16.8 | > 16.8 | 19.3 ± 2.3
10 | CCN1C(=O)/C(=C\c2ccc(O)cc2O)SC1=S | 13.3 ± 1.5 | > 16.9 | > 16.9 | 30.9 ± 10
11 | O=C(CCCCCCC(=O)Nc1ccccc1)NO | 3.17 ± 2.9 | 6.58 | > 16.9 | 132 ± 25
12 | CC(=O)NC1C(OC2OC(CC(O)C3OC(n4ccc(=O)[nH]c4=O)C(O)C3O)C(O)C(O)C2NC(=O)/C=C\CCCCCCCCCC(C)C)OC(CO)C(O)C1O (stereo not drawn) | 45 ± 4.9 | 0.521 | > 16.9 | 139 ± 19
13 | CCCCCOc1ccc(N/C(N)=N/c2nc(C)cc(C)n2)cc1 | 152 ± 12 | 10.4 | 4.05 | 68 ± 8.8
14 | CN(C)c1ccc(-c2nc3ccc(N)cc3[nH]2)cc1 | 32 ± 6 | > 15.6 | > 15.6 | 42.7 ± 3.8
15 | O=C(NC(c1ccccc1)c1ccccc1)c1csc(-c2cnccn2)n1 | 43.4 ± 9.4 | > 16.9 | > 16.9 | 34.2 ± 3.6
16 | COc1ccc(C2C=C3Oc4ccccc4N=C3NN2)cc1 (stereo not drawn) | 14.1 ± 2.1 | > 16.9 | > 16.9 | 27 ± 2.8
17 | Cc1ccccc1-c1cc(=O)c2cc(Cl)ccc2o1 | 21.7 ± 1.1 | > 17 | > 17 | 24.3 ± 3.6
18 | O=C(Nc1ccc(O)cc1)c1ccc2ccccc2c1 | 16.2 ± 1.5 | > 16.9 | > 16.9 | 31.4 ± 2.5
19 | CC(=O)c1cccc(Nc2nc(-c3ccc(O)c(O)c3)cs2)c1 | 62.6 ± 15 | 9.07 | 13.5 | 87.3 ± 28
20 | CN(c1ccccc1)S(=O)(=O)c1cccc(C(=O)NCCc2ccc(O)c(O)c2)c1 | 125.1 ± 1 | 6.56 | 8.35 | 202 ± 34
21 | Nc1ccc2nc(-c3cc(Cl)c(N)c(Cl)c3)[nH]c2c1 | 13.1 ± 1.1 | > 13 | > 13 | 22.7 ± 10
22 | O=C(Nc1ccc(Cl)cn1)c1ccc(Cl)cc1Cl | 4.15 ± 0.98 | > 15.2 | > 15.2 | 22.5 ± 8.3
23 | Cc1ccc(O)c(NC(=S)NC(=O)/C=C/c2ccco2)c1 | 5.76 ± 1.5 | > 16.9 | > 16.9 | 30.2 ± 7.3

Row | Compound | maximal XBP1-RLuc activation (HEK293T-Rex XBP1-RLuc [1]) | EC50 for ERSE-FLuc reporter activation (HEK293T-Rex ERSE-FLuc [2]) [µM] | EC50 for XBP1-RLuc reporter activation (HEK293T-Rex XBP1-RLuc [3]) [µM] | maximal ERSE-FLuc activation (HEK293T-Rex ERSE-FLuc [4])
24 | O=C(N/N=C/c1ccc(O)c(O)c1)c1cccc(Cl)c1 | 29.3 ± 2.4 | 13.6 | > 16.9 | 69.2 ± 4.9
25 | Oc1ccc(-c2cnc3c(Nc4ccc5[nH]ccc5c4)nccn23)cc1 | 37.8 ± 9.5 | > 16.9 | > 16.9 | 21.4 ± 3.8
26 | CCc1cc2c(=O)c(-c3ccc4c(c3)OCCO4)coc2cc1OC | 14.1 ± 1.5 | > 15 | > 15 | 31.2 ± 5.7
27 | CCOc1cccc(/C=C2\NC(=S)N(C)C2=O)c1O | 0.0882 ± 1.7 | > 16.9 | > 16.9 | 6.21 ± 2
28 | N#C/C(=C\c1ccc(O)c(O)c1)C(=O)Nc1ccccc1 | 21.5 ± 0.57 | 24.6 | > 33.8 | 52.2 ± 13
29 | COc1cccc(-c2nc3ccc(N)cc3[nH]2)c1 | 14.7 ± 3.4 | > 16.9 | > 16.9 | 20.8 ± 3.1
30 | Cc1cc2nc(/C(C#N)=C/c3ccco3)[nH]c2cc1C | 2.69 ± 0.74 | > 16.9 | > 16.9 | 28 ± 8.7
31 | CCOc1ccc(NC(=O)c2ccc3c(c2)OCO3)c([N+](=O)[O-])c1 | 0.524 ± 1.2 | > 18.6 | > 18.6 | 14.7 ± 3
32 | O=C(CCCN1CCC2(CC1)C(=O)N(Cc1cccc(F)c1)CN2c1ccccc1)c1ccc(F)cc1 | 214 ± 7.7 | 4.46 | 4.02 | 187 ± 19
33 | N#Cc1c(NC(=O)c2cccc(F)c2)sc2c1CCC2 | 2.22 ± 1.6 | > 16.5 | > 16.5 | 19.5 ± 3.1
34 | N/C(=N\N=C\c1ccc(O)c(O)c1)c1nonc1N | 41.6 ± 6.1 | 5.38 | > 16.9 | 96.9 ± 3.7
35 | COc1ccc2oc(=Nc3cc(F)ccc3F)c(C(N)=O)cc2c1 | 1.95 ± 1.5 | > 14.7 | > 14.7 | 19.1 ± 2.2
36 | CCCNC(=O)c1cc(-c2ccc(F)cc2)on1 | 11.7 ± 3.2 | 12 | > 16.9 | 65.8 ± 6.4
37 | C/C(=N\NC(=O)c1n[nH]c2c1CCCC2)c1ccc2ccccc2c1 | 8.52 ± 1 | > 16.9 | > 16.9 | 23.2 ± 3.1
38 | CCOc1cc(/C=C2/NC(=O)N(c3cccc(Cl)c3)C2=O)ccc1O | 61.4 ± 9.7 | > 16.9 | 11.9 | 47.5 ± 4.4
39 | O=C(N/N=C/c1ccc(Cl)cc1Cl)c1ccc(O)c(O)c1 | 47 ± 2.7 | > 16.9 | > 16.9 | 32.6 ± 8
40 | O=C(Nc1nc2c(s1)CCCC2)c1cccc2ccccc12 | 6.96 ± 1.1 | > 18.2 | > 18.2 | 32.2 ± 1.6
41 | COc1ccccc1OCC(=O)Nc1cc(C)ccc1O | 22.9 ± 1.1 | > 16.9 | > 16.9 | 45.8 ± 4.2
42 | Cc1ccc(-c2csc(Nc3ccc(O)cc3)n2)cc1 | 127 ± 1.4 | > 16.9 | 8.04 | 40.9 ± 7.5
43 | COc1ccc(-c2cc(C(=O)Nc3cc(C)ccc3O)on2)cc1OC | 9.55 ± 5.6 | > 16.9 | > 16.9 | 29.1 ± 5.3
44 | CC(=Nc1ccc(O)cc1)c1sc2ccccc2c1O | 31.2 ± 4.8 | > 19.6 | > 19.6 | 19.8 ± 4.8
45 | Oc1ccc(/C=N/Nc2cccc3cccnc23)cc1O | 35 ± 3.2 | > 16.9 | > 16.9 | 30.7 ± 5.1
46 | CC(=O)Nc1ccc2nc(-c3ccc(OC(C)=O)cc3)sc2c1 | 67 ± 2.2 | > 16.9 | 11.3 | 15.7 ± 1.8

Row | Compound | maximal XBP1-RLuc activation (HEK293T-Rex XBP1-RLuc [1]) | EC50 for ERSE-FLuc reporter activation (HEK293T-Rex ERSE-FLuc [2]) [µM] | EC50 for XBP1-RLuc reporter activation (HEK293T-Rex XBP1-RLuc [3]) [µM] | maximal ERSE-FLuc activation (HEK293T-Rex ERSE-FLuc [4])
47 | N#Cc1ccc(-c2cccs2)nc1SCc1ccccn1 | 5.22 ± 2.9 | > 16.4 | > 16.4 | 28.6 ± 1.8
48 | N#Cc1c(NC(=O)c2cnccn2)sc2c1CCCC2 | 4.67 ± 1.1 | > 17.9 | > 17.9 | 18.9 ± 4.8
49 | Cc1ccc2nc(/C(C#N)=C\c3cc(Cl)cc4c3OCOC4)[nH]c2c1 | 3.21 ± 1.4 | > 16 | > 16 | 20.1 ± 3.4
50 | O=c1cc(-c2ccc(O)c(O)c2)oc2ccccc12 | 43.9 ± 0.95 | > 17.1 | > 17.1 | 32.7 ± 5
51 | COc1cccc(/C=N\NC(=O)c2n[nH]c3c2CCC3)c1 | 4.03 ± 2.5 | > 16.6 | > 16.6 | 25.8 ± 1.9
52 | c1ccc2cc(-c3cnnc(N4CCOCC4)n3)ccc2c1 | 4.15 ± 2.7 | > 16.9 | > 16.9 | 25.2 ± 10
53 | COc1ccccc1-c1cnnc(N/N=C/c2c[nH]c3ccccc23)n1 | 29.8 ± 2.1 | > 16.9 | > 16.9 | 49.9 ± 8.2
54 | Cc1ccc(O)c(-c2cc(-c3ccc(F)cc3)n[nH]2)c1 | 17.2 ± 4 | 10.5 | > 19 | 71.4 ± 16
55 | Cc1nc(-c2ccc(C(=O)Nc3ccc(O)cc3)cc2)cs1 | 65.5 ± 3.6 | > 16.9 | 12.9 | 27.7 ± 1.8
56 | Cc1ccc(O)c(NC(=O)c2cc(-c3ccc(O)cc3)on2)c1 | 30.8 ± 5.7 | 9.05 | > 16.9 | 58.9 ± 2.1
57 | CC(C)c1ccc(NC(=O)/C=C/c2ccco2)cc1 | 7.59 ± 2.4 | > 17.2 | > 17.2 | 21.5 ± 4.6
58 | CCN(CC)c1ccc(NC(=O)c2cccc(OC)c2)cc1 | 2.18 ± 7.1 | > 17.8 | > 17.8 | 29.7 ± 5.3
59 | O=C(NCCc1ccccc1)c1cc(-c2cccs2)on1 | 8.27 ± 3.3 | 12.4 | > 16.9 | 64.6 ± 9.1
60 | Oc1ccc(-c2csc3nc(-c4ccccc4)nn23)c(O)c1 | 32.4 ± 1.3 | > 16.9 | > 16.9 | 30.1 ± 2.2
61 | COc1cc(/C=C/c2ccc(O)c(OC)c2)ccc1O | 72.3 ± 8.1 | > 16.9 | 8.73 | 31.1 ± 6.9
62 | COc1ccc(/C=C/c2nc3cc([N+](=O)[O-])ccc3s2)cc1O | 8.74 ± 5.7 | > 18.5 | > 18.5 | 39.5 ± 2.4
63 | CC(C)c1ccc(/C=N\NC(=O)c2ccccc2)cc1 | 17.7 ± 5.7 | > 16.9 | > 16.9 | 19.3 ± 9.1
64 | N#CC1=C(N)Oc2c(ccc3ccccc23)C1c1ccccc1 (stereo not drawn) | 7.34 ± 1.6 | > 16.9 | > 16.9 | 15.5 ± 0.4
65 | O=[N+]([O-])c1ccc(N/N=C/c2ccccc2O)cc1 | 68.9 ± 7.5 | > 16.9 | 13 | 44.5 ± 7.8
66 | OCCNc1nc(Nc2ccc(Cl)c(Cl)c2)nc2ccccc12 | 73.7 ± 9 | 4.13 | 4.98 | 144 ± 47
67 | CC(=O)Oc1ccc(C(=O)OCc2ccc(Cl)cc2)cc1OC(C)=O | 24.7 ± 3.7 | > 18.6 | > 18.6 | 40.4 ± 4.3
